In US20230382915A1, “GCN2 AND PERK KINASE INHIBITORS AND METHODS OF USE THEREOF” (Deciphera Pharmaceuticals, LLC, priority 2021, published 2023):

Columns and labels:
[1] = test system: ATF4 in HCT116 colorectal cancer cells; assay: HCT116 amino acid starved (-AA) ATF4 Western blot; type: cell-based; conditions: Homo sapiens, HCT-116, 4 h
Method: (§1) HCT116 colorectal cancer cells (catalog #CCL-247) were obtained from the American Type Culture Collect (ATTC, Manassas, VA). Briefly, cells were grown in RPMI 1640 supplemented with 10% heat inactivated fetal bovine serum (Invitrogen, Carlsbad, CA) and 1% Penicillin/Streptomycin/L-Glutamine at 37° C., 5% CO2, and 95% humidity. Cells were expanded until reaching 70-95% confluency at which point they were subcultured or harvested for assay use. Cells were seeded in 12-well culture plate at five hundred thousand cells per well in 1 mL complete growth medium and incubated overnight at 37° C., 5% CO2, and 95% humidity. The next day each well was replaced with 1 mL Earle's Balanced Salt Solution (EBSS, Invitrogen, Carlsbad, CA) supplemented with 10% Dialyzed Fetal Bovine Serum, 5.5 mM Glucose, 1% Penicillin/Streptomycin and 1% Vitamin solution (thermo #11120052). A serial dilution of test compound was dispensed into well. Plates were incubated for 4 h at 37° C., 5% CO2, and 95% humidity. […] Western blot was performed on each lysate to quantify phospho-GCN2 (Thr899), total GCN2, ATF4 and beta-Actin. […] Data were analyzed using GraphPad Prism software (GraphPad, San Diego, CA) to calculate IC50 values.

CCRF-CEM leukemia cells = assay: CCRF-CEM ASNase cell proliferation assay; type: cell-based; conditions: Homo sapiens, 1 mU/mL ASNase, 72 h
Method: CCRF-CEM leukemia cells (catalog #CCL-116) were obtained from the American Type Culture Collect (ATTC, Manassas, VA). Cells were grown in RPMI-1640 medium supplemented with 10% heat-inactivated fetal bovine serum (Invitrogen, Carlsbad, CA) and 1% Penicillin/Streptomycin/L-Glutamine at 37° C., 5% CO2, and 95% humidity. Cells were expanded until reaching one million cells per mL at which time they are subcultured or harvested for assay use. Ten thousand cells per well in 200 μL RPMI-1640 supplemented with 10% heat-inactivated fetal bovine serum and 1% Penicillin/Streptomycin were dispensed into a 96-well black clear bottom plate. A serial dilution of test compound and 1 mU/mL ASNase was added in triplicate and plates were incubated for 72 h at 37° C., 5% CO2, and 95% humidity. At the end of the incubation, 40 μL of a […] solution of resazurin (Sigma, St. Louis, MO) in PBS was added to each well of the plate and plates were incubated for an additional 6 h at 37° C., 5% CO2, and 95% humidity. Plates were read on a Synergy2 or equivalent reader (Biotek, Winooski VT) using an excitation of 540 nm and an emission of 600 nm. Data was analyzed using GraphPad Prism software (GraphPad, San Diego, CA) to calculate IC50 values.

PERK enzyme = PERK enzyme (Homo sapiens (Human), UniProt Q9NZJ5); assay: Biochemical assay for PERK (coupled pyruvate kinase/lactate dehydrogenase); conditions: 1 mM ATP
PERK enzyme, sequence (Q9NZJ5 other isoform, or with tags, fused parts or gaps): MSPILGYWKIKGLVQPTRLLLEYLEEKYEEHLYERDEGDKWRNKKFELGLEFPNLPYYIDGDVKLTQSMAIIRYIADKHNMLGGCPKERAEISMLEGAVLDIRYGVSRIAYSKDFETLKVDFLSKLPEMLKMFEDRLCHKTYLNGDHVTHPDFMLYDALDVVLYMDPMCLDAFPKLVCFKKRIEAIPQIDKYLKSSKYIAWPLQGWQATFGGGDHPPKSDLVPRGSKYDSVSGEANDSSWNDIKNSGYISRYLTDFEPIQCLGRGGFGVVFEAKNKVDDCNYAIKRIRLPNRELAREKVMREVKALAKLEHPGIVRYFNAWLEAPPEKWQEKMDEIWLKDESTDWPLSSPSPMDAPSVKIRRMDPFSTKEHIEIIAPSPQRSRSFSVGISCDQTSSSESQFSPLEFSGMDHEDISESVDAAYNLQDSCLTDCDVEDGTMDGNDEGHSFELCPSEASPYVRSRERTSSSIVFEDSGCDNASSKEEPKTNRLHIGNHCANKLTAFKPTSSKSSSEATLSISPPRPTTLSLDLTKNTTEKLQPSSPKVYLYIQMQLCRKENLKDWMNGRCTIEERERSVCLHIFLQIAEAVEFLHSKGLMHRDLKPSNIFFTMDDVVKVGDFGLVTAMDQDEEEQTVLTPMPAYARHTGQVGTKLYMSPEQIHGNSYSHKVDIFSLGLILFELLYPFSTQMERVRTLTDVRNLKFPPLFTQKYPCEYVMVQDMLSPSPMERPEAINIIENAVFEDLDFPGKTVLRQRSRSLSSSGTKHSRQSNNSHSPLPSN
Method: Activity of PERK kinase was determined spectroscopically using a coupled pyruvate kinase/lactate dehydrogenase assay that continuously monitors the ATP hydrolysis-dependent oxidation of NADH (e.g., Schindler et al. Science (2000) 289: 1938-1942). Assays were conducted in 384-well plates ([…] final volume) using 10 nM PERK (from Beryllium), 0.25 mg/mL Myelin Basic Protein substrate, 1.5 units pyruvate kinase, 2.1 units lactate dehydrogenase, 1 mM phosphoenol pyruvate, 0.28 mM NADH and 1 mM ATP in assay buffer (100 mM Tris, pH 7.5, 15 mM MgCl2, 0.5 mM DTT, 0.004% (w/v) BSA, and 0.004% Triton X-100). Inhibition of PERK was measured by adding serial diluted test compound (final assay concentration of 1% DMSO). A decrease in absorption at 340 nm was monitored continuously for 6 hours at 30° C. on a multi-mode microplate reader (BioTek). The reaction rate was calculated using the 2-3 h time frame. The reaction rate at each concentration of compound was converted to percent inhibition using controls (i.e., reaction with no test compound and reaction with a known inhibitor) and IC50 values were calculated using software routines in Prism (GraphPad software).

[2] = test system: phospho-GCN2 (Thr899) in HCT116 colorectal cancer cells; assay: HCT116 amino acid starved (-AA) phospho-GCN2 Western blot; type: cell-based; conditions: Homo sapiens, HCT-116, 4 h, read-out: HCT116 -AA pGCN2 Western Blot
Method: as §1

[3] = test system: ATF4 in thapsigargin stimulated CCRF-CEM cells (PERK); assay: CCRF-CEM thapsigargin (TG) ATF4 ELISA; type: cell-based; conditions: Homo sapiens, 1 μM thapsigargin
Method: CCRF-CEM leukemia cells (catalog #CCL-116) were obtained from the American Type Culture Collection (ATTC, Manassas, VA). Briefly, cells were grown in RPMI-1640 medium supplemented with 10% heat-inactivated fetal bovine serum (Invitrogen, Carlsbad, CA) and 1% Penicillin/Streptomycin/L-Glutamine at 37° C., 5% CO2, and 95% humidity. Cells were expanded until reaching one million cells per mL at which time they were subcultured or harvested for assay use. One million five hundred thousand cells per well in 1 mL complete growth medium were dispensed into 12-well plates and incubated overnight. A serial dilution of test compound was added and cells were incubated at 37° C., 5% CO2, and 95% for three hours, then 1 μM thapsigargin was added and cells were incubated for an additional hour at 37° C., 5% CO2, and 95%. Cells were lysed then ATF4 levels were measured using an ELISA assay (Proteintech, Rosemont, IL). Absorbance was measured at 450 nm and 544 nM using a Synergy2 or equivalent reader (Biotek, Winooski VT). Data was analyzed using PRISM software (Graphpad, San Diego, CA) to calculate IC50 values.

GCN2 kinase = GCN2 kinase (Homo sapiens (Human), UniProt Q9P2K8); assay: Biochemical assay for GCN2 (TR-FRET kinase activity); conditions: 1 mM ATP
GCN2 kinase, sequence (Q9P2K8 whole entry): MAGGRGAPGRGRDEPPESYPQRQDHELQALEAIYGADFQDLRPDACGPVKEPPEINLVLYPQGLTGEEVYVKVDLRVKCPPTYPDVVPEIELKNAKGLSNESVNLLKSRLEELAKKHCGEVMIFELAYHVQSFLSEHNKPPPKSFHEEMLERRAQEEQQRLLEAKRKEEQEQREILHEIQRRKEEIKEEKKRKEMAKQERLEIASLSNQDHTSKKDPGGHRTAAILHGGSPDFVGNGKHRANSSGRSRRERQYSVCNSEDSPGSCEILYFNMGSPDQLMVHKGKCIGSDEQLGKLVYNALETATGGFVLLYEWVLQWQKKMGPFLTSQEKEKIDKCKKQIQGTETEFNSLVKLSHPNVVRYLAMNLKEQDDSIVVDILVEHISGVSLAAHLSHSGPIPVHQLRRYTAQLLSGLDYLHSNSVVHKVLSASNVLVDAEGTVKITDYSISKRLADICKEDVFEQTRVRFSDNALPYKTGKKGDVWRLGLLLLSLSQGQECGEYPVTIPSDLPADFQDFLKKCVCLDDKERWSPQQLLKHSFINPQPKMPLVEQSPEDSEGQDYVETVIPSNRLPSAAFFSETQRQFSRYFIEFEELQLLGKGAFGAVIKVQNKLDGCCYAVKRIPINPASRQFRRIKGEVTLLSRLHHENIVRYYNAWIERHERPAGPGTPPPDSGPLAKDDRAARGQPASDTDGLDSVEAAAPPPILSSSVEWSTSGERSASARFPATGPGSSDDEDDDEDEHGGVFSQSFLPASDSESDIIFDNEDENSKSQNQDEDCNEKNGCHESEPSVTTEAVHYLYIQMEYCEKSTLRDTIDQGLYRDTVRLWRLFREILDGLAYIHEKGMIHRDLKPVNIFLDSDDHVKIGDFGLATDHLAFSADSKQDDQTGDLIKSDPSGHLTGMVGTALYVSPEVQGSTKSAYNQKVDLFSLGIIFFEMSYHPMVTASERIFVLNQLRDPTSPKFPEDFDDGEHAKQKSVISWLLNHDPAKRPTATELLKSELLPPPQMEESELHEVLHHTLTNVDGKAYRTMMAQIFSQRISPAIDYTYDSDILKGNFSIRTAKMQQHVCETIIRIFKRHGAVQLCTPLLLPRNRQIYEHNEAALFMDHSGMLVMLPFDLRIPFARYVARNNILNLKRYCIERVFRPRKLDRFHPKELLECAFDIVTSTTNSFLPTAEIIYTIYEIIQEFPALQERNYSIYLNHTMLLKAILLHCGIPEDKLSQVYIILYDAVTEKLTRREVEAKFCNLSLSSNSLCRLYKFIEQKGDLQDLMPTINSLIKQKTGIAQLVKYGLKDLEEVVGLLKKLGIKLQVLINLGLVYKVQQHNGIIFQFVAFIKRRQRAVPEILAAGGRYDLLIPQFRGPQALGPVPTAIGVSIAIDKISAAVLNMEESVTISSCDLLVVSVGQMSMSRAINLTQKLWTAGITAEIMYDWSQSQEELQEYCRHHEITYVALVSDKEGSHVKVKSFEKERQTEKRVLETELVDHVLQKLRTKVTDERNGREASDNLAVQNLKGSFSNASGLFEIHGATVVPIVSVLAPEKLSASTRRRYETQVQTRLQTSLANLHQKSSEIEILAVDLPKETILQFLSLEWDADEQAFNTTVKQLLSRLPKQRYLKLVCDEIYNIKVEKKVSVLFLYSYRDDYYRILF
Method: Activity of GCN2 kinase was determined using a TR-FRET kinase activity assay (e.g. Riddle et al. Analytical Biochemistry (2006) 356(1) 108-116). Assays were conducted in 384-well plates (13 μL assay volume) using 2 nM GCN2 (Carna Biosciences), 130 nM GFP-EIf2α (Invitrogen), 0.2 mg/mL E. coli tRNA (sigma) and 1 mM ATP in kinase buffer (Invitrogen). Inhibition of GCN2 was measured by adding serial diluted test compound (final assay concentration of 0.5% DMSO) followed by a 3-hour incubation. Tb-peIF2α (pSer52) antibody (Invitrogen) (2 nM final assay concentration) in kinase buffer containing EDTA (final assay concentration of 20 mM) was added. After a 60 min incubation at room temperature, TR-FRET was monitored using an excitation wavelength of 340 nm and emission wavelengths of 490 nm and 520 nm. The emission ratio (520/490) at each compound concentration of was converted to percent inhibition using controls (i.e., reaction with no test compound and reaction with a known inhibitor) and IC50 values were calculated by fitting a four-parameter sigmoidal curve to the data using Prism (GraphPad software).

[4] = test system: ATF4 in H929 multiple myeloma cells; assay: H929 ATF4 ELISA assay; type: cell-based; conditions: four hours, relative to vehicle treated control
Method: H929 multiple myeloma cells (catalog #CRL-9068) were obtained from the American Type Culture Collection (ATTC, Manassas, VA). Briefly, cells were grown in RPMI-1640 medium supplemented with 20% heat-inactivated fetal bovine serum (catalog #A3840002, ThermoFisher Scientific, Waltham, MA), 1% Penicillin/Streptomycin/L-Glutamine (catalog #10378016, ThermoFisher Scientific, Waltham, MA), and 0.05 mM 2-mercaptoethanol (catalog #21985-023, ThermoFisher Scientific, Waltham, MA) at 37° C., 5% CO2, and 95% humidity. Cells were expanded until reaching one million five hundred thousand cells per mL at which time they were sub-cultured or harvested for assay use. One million five hundred thousand cells per well in 1 mL complete growth medium were dispensed into 12-well plates and incubated overnight. A serial dilution of test compound was added, and cells were incubated at 37° C., 5% CO2, and 95% for four hours. Cells were lysed then ATF4 levels were measured using an ELISA assay (Proteintech, Rosemont, IL). Absorbance is measured at 450 nm and 544 nM using a Synergy2 or equivalent reader (Biotek, Winooski VT). Data were analyzed using PRISM software (Graphpad, San Diego, CA) to calculate fold stimulation of cellular ATF4 relative to vehicle treated control.

SMILES	IC50 [1] [nM]	IC50 (CCRF-CEM leukemia cells) [nM]	IC50 (PERK enzyme) [nM]	IC50 [2] [nM]	IC50 [3] [nM]	IC50 (GCN2 kinase) [nM]	H929 NS ATF4 ELISA (ATF4 stim) [4]
CC(C)n1cc(-c2cccc(NS(=O)(=O)c3cc(Cl)cc(CO)c3Cl)c2F)c2c(N)ncnc21 [Example 3]	≤ 100	≤ 100	≤ 100	≤ 100	≤ 100	≤ 100	–
Cn1cc(-c2cc(F)cc(NS(=O)(=O)c3cc(Cl)cc(CO)c3Cl)c2F)c2c(N)ncnc21 [Example 14]	–	100 to 500	≤ 100	–	100 to 500	≤ 100	++ (an ATF4 stim greater than 5-fold and less than or equal to 10 fold)
Cn1nc(-c2cccc(NS(=O)(=O)c3cc(Cl)cc(CO)c3Cl)c2F)c2c(N)ncnc21 [Example 21]	–	100 to 500	≤ 100	–	100 to 500	≤ 100	++ (an ATF4 stim greater than 5-fold and less than or equal to 10 fold)
COc1c(CO)cc(Cl)cc1S(=O)(=O)Nc1cccc(-c2cn(C)c3ncnc(N)c23)c1F [Example 24]	–	1000 to 10000	≤ 100	–	100 to 500	1000 to 10000	++ (an ATF4 stim greater than 5-fold and less than or equal to 10 fold)
Cc1cc(CO)c(Cl)c(S(=O)(=O)Nc2cccc(-c3cn(C)c4ncnc(N)c34)c2F)c1 [Example 25]	–	100 to 500	≤ 100	–	≤ 100	100 to 500	+++ (an ATF4 stim greater than 10 fold and less than or equal to 20 fold)
Cc1c(CO)cc(Cl)cc1S(=O)(=O)Nc1cccc(-c2cn(C)c3ncnc(N)c23)c1F [Example 26]	–	100 to 500	≤ 100	–	≤ 100	≤ 100	+++ (an ATF4 stim greater than 10 fold and less than or equal to 20 fold)
